≈ marks a conversion by molar mass, not a printed value. Like-named read-outs stand apart in the source and are kept apart here.
Experiments:
[1] = target: T1, ANT(2″)-Ia (Klebsiella pneumoniae, UniProt P0AE05); assay: ANT; assay type: biochemical; settings: for fold less potent than β-thujaplicinol: relative to β-thujaplicinol; for fold increase in activity over the other synthetic α-hydroxytropolones: relative to other synthetic α-hydroxytropolones
[2] = test system: hyper-permeable, ANT(2″)-Ia-expressing strain of E. coli BW25113; assay: Checkerboard analysis with gentamicin against ANT; assay type: cell-based; settings: for synergy with gentamicin (in words): ANT(2″)-Ia-expressing E. coli
[3] = target: T1, ANT(2″)-Ia; settings: cited from earlier work
[4] = test system: E. coli BW25113 wild type; assay: Gentamicin MIC against wild type E. coli; assay type: cell-based; settings: Escherichia coli, BW25113, read-out: gentamicin MIC
[5] = test system: isogenic E. coli mutant with the gene encoding aminoglycoside phosphotransferase (APH[2″]-Id); assay: Checkerboard analysis with gentamicin against APH; assay type: cell-based; settings: ANT(2″)-Ia-negative, APH(2″)-Id-positive bacteria
[6] = purified enzyme, 96 well format

T1 sequence (P0AE05 whole entry): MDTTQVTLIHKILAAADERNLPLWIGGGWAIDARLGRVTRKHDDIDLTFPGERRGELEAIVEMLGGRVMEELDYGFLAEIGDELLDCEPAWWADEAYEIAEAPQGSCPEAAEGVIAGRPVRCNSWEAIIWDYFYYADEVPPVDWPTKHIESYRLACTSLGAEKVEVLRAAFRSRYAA

| Compound | ANT(2″)-Ia inhibitory activity (in words) [1, 6] | synergy with gentamicin (in words) [2] | further results |
| --- | --- | --- | --- |
| CC(=O)c1cc(O)c(=O)c(O)cc1C [3e] | significant inhibitory potency | Synergy | fold less potent than β-thujaplicinol [1]: 5–10 fold; gentamicin concentration at which no growth is seen ([2]; 50 μM of compound, lowest concentration of gentamicin tested): ≤ 2 µg/mL |
| Cc1cc(O)c(=O)c(O)cc1-c1ccc([N+](=O)[O-])cc1 [3g] | significant inhibitory potency | no synergistic activity | fold less potent than β-thujaplicinol [1]: 5–10 fold |
| Cc1cc(O)c(=O)c(O)cc1-c1ccc(-c2ccccc2)cc1 [3h] | – | no synergistic activity | – |
| Cc1cc(O)c(=O)c(O)cc1-c1ccccc1 [3i] | comparable potency to nitroaryl-containing 3g | – | – |
| Cc1cc(O)c(=O)c(O)cc1-c1cccc2ccccc12 [3j] | no activity at all | – | – |
| Cc1cc(O)c(=O)c(O)cc1-c1ccc2ccccc2c1 [3k] | no activity at all | – | – |
| Cc1cc(O)c(=O)c(O)cc1-c1ccc(Br)cc1 [3l] | – | no synergistic activity | fold increase in activity over the other synthetic α-hydroxytropolones [1]: ~4 fold |
| Cc1cc(O)c(=O)c(O)cc1-c1ccc(Cl)cc1 [3m] | – | no synergistic activity | fold increase in activity over the other synthetic α-hydroxytropolones [1]: ~4 fold |
| Cc1cc(O)c(=O)c(O)cc1-c1ccc(C(F)(F)F)cc1 [3n] | no activity at all | Synergy | – |
| Cc1cc(O)c(=O)c(O)cc1C(=O)C(C)C [3o] | appreciable inhibitory activity, which was comparable to 3e | – | – |
| Cc1cc(O)c(=O)c(O)cc1C(=O)C1CCCCC1 [3p] | inactivity | – | – |
| Cc1cc(O)c(=O)c(O)cc1C(=O)CC1CCCCC1 [3q] | inactivity | – | – |
| COc1cc(C)c(C(C)=O)cc(O)c1=O [4e] | – | – | ANT(2″)-Ia inhibitory activity (in words) [1]: inactive |
| COc1cc(C)c(-c2ccc([N+](=O)[O-])cc2)cc(O)c1=O [4g] | – | – | ANT(2″)-Ia inhibitory activity (in words) [1]: inactive |
| O=c1cccccc1O [Tropolone] | – | – | ANT(2″)-Ia inhibition (in words) [3]: no activity |
| CNC(C)C1CCC(N)C(OC2C(N)CC(N)C(OC3OCC(C)(O)C(NC)C3O)C2O)O1 (centres unmarked) [gentamicin, reference compound] | – | – | MIC [4]: 0.25 µg/mL (≈ 0.523 µM); MIC ([2]; Escherichia coli, BW25113, read-out: gentamicin MIC): 64 µg/mL |
| O=c1c(O)ccccc1O [α-hydroxytropolone] | – | – | ANT(2″)-Ia inhibition (in words) [3]: capable of inhibiting |
| CC(C)c1ccc(O)c(=O)c(O)c1 [β-thujaplicinol] | – | – | synergy with gentamicin (in words) [5]: no synergy; ANT(2″)-Ia inhibition (in words) [3]: capable of inhibiting; antibacterial effect of compound (in words) ([2]; 50 μM of compound): all of the bacterial cells have died |
